Measurements from patent publication US20230242679A1, “BISPECIFIC ANTIBODY THERAPIES” (priority 2022, published 2023).
“Also recorded” adds a separate entry of the source. Read-outs that look alike come from different tables or passages of the source.

Tests used:
[1] = test system: CRS in SCID or humanized mice with Raji-luc tumor cells; assay: Mouse model of Raji-luc tumor with CAR-T induced CRS (Example 2); conditions: IP, BID for 7 days
[2] = test system: CD19-targeting CAR T-cells co-cultured with CD19+Raji lymphoma target cells; assay: Cytokine levels in co-culture of CD19 CAR T-cells with Raji cells; type: cell-based, human; conditions: for Levels of IL-6 / Levels of TNF-α / Levels of IFN-γ: CAR T-cells:Raji cells 10:1; for Levels of IL-6: FIG. 1A; for Levels of TNF-α: FIG. 1B; for Levels of IFN-γ: FIG. 1C
Excerpt: The impact of CT01681 on the efficacy of CD19-targeting CAR T-cells in vitro was studied as a surrogate measure of the impact of CTO1681 on T cell function downstream of administering bispecific antibody therapy to a subject. […] CD3 T cells were sorted from one healthy donor PBMCs, stimulated for a short period of time and transduced with CD19 CAR-T lentivirus (LV) containing CD28 and CD3ζ domains. CD19 CAR T-cells were expanded for 6 days and used in the assay. CD19-targeting CD3 T-cells were treated with 5 increasing concentrations of CT01681 (0.36 nM, 1.8 nM, 9 nM, 45 nM, and 225 nM) or vehicle for 30 minutes prior to, and during co-culture with CD19+Raji lymphoma target cells. Media alone, vehicle, and positive control (dexamethasone) wells were included. Following initial treatment, CAR T-cells (Effectors) were co-cultured with fluorescently labeled CD19+Raji tumor cells (Target cells) at 3 different Effector: Target cell ratios (10:1, 5:1 and 1:1) and treated with 5 different concentrations of CT01681 or vehicle for 24 hours. Target cells (Raji cells) were fluorescently labelled with CPD (eBioscience™ Cell Proliferation Dye eFluor™) prior to co-culture to distinguish the Raji cells from the effector cells and allow for analysis of target viability by flow cytometry. Following incubation, supernatant was collected and levels of pro-inflammatory cytokines IL-6 and TNF-α were measured by multiplex Luminex assay and […] was measured via time-resolved fluorescence resonance energy transfer (TR-FRET) assay. These cytokines were selected for quantification as they are early cytokines released following CAR T-cell infusion and bispecific antibody therapy administration in vivo that causes hyperactivation of the immune system resulting in acute systemic inflammation, CRS, multiorgan failure, and possible death. In addition, flow cytometry was used to measure the level of Raji tumor/target cell death following CAR T treatment across CTO1681 conditions to measure impact of CTO1681 with CAR T-cell efficacy. Co-cultures were stained with viability dye 7-AAD for measuring viability.

CD19+Raji tumor cells = assay: Raji target cell killing by CD19 CAR T-cells (flow cytometry, 7-AAD); type: cell-based, human; conditions: 0.36-225 nM; 24 hours; Effector:Target 10:1, 5:1, 1:1; listed as CT01681, monosodium salt
Excerpt: The impact of CT01681 on the efficacy of CD19-targeting CAR T-cells in vitro was studied as a surrogate measure of the impact of CTO1681 on T cell function downstream of administering bispecific antibody therapy to a subject. […] CD3 T cells were sorted from one healthy donor PBMCs, stimulated for a short period of time and transduced with CD19 CAR-T lentivirus (LV) containing CD28 and CD3ζ domains. CD19 CAR T-cells were expanded for 6 days and used in the assay. CD19-targeting CD3 T-cells were treated with 5 increasing concentrations of CT01681 (0.36 nM, 1.8 nM, 9 nM, 45 nM, and 225 nM) or vehicle for 30 minutes prior to, and during co-culture with CD19+Raji lymphoma target cells. Media alone, vehicle, and positive control (dexamethasone) wells were included. […] Following incubation, supernatant was collected and levels of pro-inflammatory cytokines IL-6 and TNF-α were measured by multiplex Luminex assay and […] was measured via time-resolved fluorescence resonance energy transfer (TR-FRET) assay. These cytokines were selected for quantification as they are early cytokines released following CAR T-cell infusion and bispecific antibody therapy administration in vivo that causes hyperactivation of the immune system resulting in acute systemic inflammation, CRS, multiorgan failure, and possible death. […]

normal human PBMC = assay: Cytokine release assay in normal human PBMC stimulated with LPS or Poly (I:C); type: cell-based; conditions: for Number of cytokines reduced of those analyzed: LPS or Poly(I:C), pooled and individual donor results
influenza (H1N1) = type: in vivo, mice; conditions: for IL-2 in vivo / IL-6 in vivo / IL-10 in vivo: CytoAgents in vivo influenza (H1N1) studies
influenza (H5N1) = conditions: Gemmus Pharma in vivo influenza (H5N1) studies; listed as CT01681, monosodium salt; cited from earlier work
[3] = listed as CT01681, monosodium salt
[4] = Effector:Target 10:1, 0.36-225 nM, 24 hours, Luminex
[5] = LPS, 24 h supernatant, CTO1681 750 μM
[6] = Poly(I:C), 24 h supernatant, CTO1681 750 μM

CC#CC[C@H](C)[C@H](O)/C=C/[C@@H]1[C@H]2c3cccc(CCCC(=O)[O-])c3O[C@H]2C[C@H]1O.[Na+] [CTO1681, (+)-[1R, 2R, 3aS, 8bS]-2,3,3a,8b-tetrahydro-2-hydroxy-1-[(E)-(3S,4S)-3-hydroxy-4-methyl-1-octen-6-ynyl)-1Hcyclopenta[b]benzofuran-5-butanoic acid, monosodium salt]
Survival benefits versus dexamethasone [1]: greater survival benefits
Levels of IL-6 [2, 3]: dose-dependently lowers
Levels of IL-6 ([2]; monosodium salt): dose-dependently reduced
Levels of TNF-α [2, 3]: dose-dependently lowers
Levels of TNF-α ([2]; monosodium salt): dose-dependently reduced
Levels of IFN-γ [2, 3]: dose-dependently lowers
Levels of IFN-γ ([2]; monosodium salt): dose-dependently reduced
Maximum reduction of IL-6 [2, 4]: ~23%
Maximum reduction of TNF-α [2, 4]: approximately 50%
Maximum reduction of IFN-γ ([2]; Effector:Target 10:1, 0.36-225 nM, 24 hours, TR-FRET): ~26%
IL-6 with increasing concentrations ([2]; three CAR-T:Raji ratios (10:1, 5:1, 1:1), FIG. 1D): reduction
TNF-α with increasing concentrations ([2]; three CAR-T:Raji ratios (10:1, 5:1, 1:1), FIG. 1E): reduction
IFN-γ with increasing concentrations ([2]; three CAR-T:Raji ratios (10:1, 5:1, 1:1), FIG. 1F): reduction
Effect on tumor/target cell killing efficacy of CD19 CAR T-cells (CD19+Raji tumor cells): does not interfere; also recorded: absence of an effect; also recorded: did not impact or interfere
Nominal reduction in ex vivo production of IFNα (normal human PBMC; LPS or Poly(I:C) stimulated PBMC, statistically significant): less than 2 fold
Number of cytokines reduced of those analyzed (normal human PBMC; [3]): 21 of the 29
Number of cytokines reduced of those analyzed (normal human PBMC; monosodium salt): 21
Cytokine response CCL2 (MCP-1) (significant reduction) (normal human PBMC; [5]): YES
Cytokine response CCL3 (MIP1 α) (significant reduction) (normal human PBMC; [5]): YES
Cytokine response CCL5 (RANTES) (significant reduction) (normal human PBMC; [5]): YES
Cytokine response CXCL9 (MIG) (significant reduction) (normal human PBMC; [5]): YES
Cytokine response CXCL10 (IP-10) (significant reduction) (normal human PBMC; [5]): YES
Cytokine response FGF (significant reduction) (normal human PBMC; [5]): YES
Cytokine response GM-CSF (significant reduction) (normal human PBMC; [5]): YES
Cytokine response IFN-α2 (significant reduction) (normal human PBMC; [5]): YES
Cytokine response IFN-γ (significant reduction) (normal human PBMC; [5]): YES
Cytokine response IL-1α (significant reduction) (normal human PBMC; [5]): YES
Cytokine response IL-1β (significant reduction) (normal human PBMC; [5]): YES
Cytokine response IL-4 (significant reduction) (normal human PBMC; [5]): YES
Cytokine response IL-5 (significant reduction) (normal human PBMC; [5]): YES
Cytokine response IL-9 (significant reduction) (normal human PBMC; [5]): YES
Cytokine response IL-12 (significant reduction) (normal human PBMC; [5]): YES
Cytokine response IL-13 (significant reduction) (normal human PBMC; [5]): YES
Cytokine response IL-15 (significant reduction) (normal human PBMC; [5]): YES
Cytokine response IL-17 (significant reduction) (normal human PBMC; [5]): YES
Cytokine response IL-18 (significant reduction) (normal human PBMC; [5]): YES
Cytokine response PDGF (significant reduction) (normal human PBMC; [5]): YES
Cytokine response TNF-α (significant reduction) (normal human PBMC; [5]): YES
Cytokine response CCL2 (MCP-1) (significant reduction) (normal human PBMC; [6]): YES
Cytokine response CCL5 (RANTES) (significant reduction) (normal human PBMC; [6]): YES
Cytokine response CXCL9 (MIG) (significant reduction) (normal human PBMC; [6]): YES
Cytokine response CXCL10 (IP-10) (significant reduction) (normal human PBMC; [6]): YES
Cytokine response IFN-α2 (significant reduction) (normal human PBMC; [6]): YES
Cytokine response IFN-γ (significant reduction) (normal human PBMC; [6]): YES
Cytokine response IL-1α (significant reduction) (normal human PBMC; [6]): YES
Cytokine response IL-1β (significant reduction) (normal human PBMC; [6]): YES
Cytokine response IL-4 (significant reduction) (normal human PBMC; [6]): YES
Cytokine response IL-5 (significant reduction) (normal human PBMC; [6]): YES
Cytokine response IL-12 (significant reduction) (normal human PBMC; [6]): YES
Cytokine response IL-13 (significant reduction) (normal human PBMC; [6]): YES
Cytokine response IL-15 (significant reduction) (normal human PBMC; [6]): YES
Cytokine response IL-18 (significant reduction) (normal human PBMC; [6]): YES
Cytokine response PDGF (significant reduction) (normal human PBMC; [6]): YES
Cytokine response TNF-α (significant reduction) (normal human PBMC; [6]): YES
IL-2 in vivo (influenza (H1N1); [3]): significantly suppressed
IL-6 in vivo (influenza (H1N1); [3]): significantly suppressed
IL-10 in vivo (influenza (H1N1); [3]): significantly suppressed
IL-2 in vivo (influenza (H1N1); monosodium salt): reduced
IL-6 in vivo (influenza (H1N1); monosodium salt): reduced
IL-10 in vivo (influenza (H1N1); monosodium salt): reduced
IL-8 in vivo (influenza (H1N1); mouse, in vivo): significantly suppressed
IFN-α concentrations in vivo (influenza (H1N1); mouse, in vivo, listed as CT01681, monosodium salt): no significant repression
IFN-α concentrations in vivo (influenza (H1N1); mouse, in vivo, monosodium salt): not suppressed
IL-2 in vivo (influenza (H5N1)): reduced; also recorded: significantly suppressed
IL-6 in vivo (influenza (H5N1)): reduced; also recorded: significantly suppressed
IL-8 in vivo (influenza (H5N1)): reduced; also recorded: significantly suppressed
IL-10 in vivo (influenza (H5N1)): reduced; also recorded: significantly suppressed
